ChEMBL document CHEMBL3860065, “Synthesis and biological evaluation of azole-diphenylpyrimidine derivatives (AzDPPYs) as potent T790M mutant form of epidermal growth factor receptor inhibitors” (Bioorg Med Chem, 2016)

Tests used:
[1] = human
[2] = cells; assay type: functional, cell-based; settings: Homo sapiens, NCI-H1975, 48 h
[3] = Antiproliferative activity against wild type human A431 cells after 48 hrs by MTT assay; assay type: functional, cell-based; settings: A-431, 48 h
[4] = Antiproliferative activity against human A549 cells harboring K-ras mutation after 48 hrs by MTT assay; assay type: functional, cell-based; settings: A549, 48 h
[5] = Antiproliferative activity against NHBE cells after 48 hrs by MTT assay; assay type: ADME, cell-based; settings: Homo sapiens
[6] = target: Epidermal growth factor receptor (Homo sapiens, UniProt P00533, L858R/T790M); assay: biochemical; assay type: cell-based, Sf9
[7] = target: Epidermal growth factor receptor (Homo sapiens, UniProt P00533); assay type: ADME, cell-based, Sf9
Description: Inhibition of human recombinant N-terminal GST-tagged wild type EGFR cytoplasmic domain (695 end residues) autophosphorylation expressed in baculovirus infected Sf9 insect cells by ADP-Glo luminescence assay

[8] = tested on: NCI-H1975; assay: Induction of apoptosis in human NCI-H1975 cells harboring L858R/T790M double mutant assessed as necrotic cells at 500 nM after 48 hrs by annexin V-FITC/PI staining based flow cytometric analysis (reference value: 0.4%); assay type: functional
[9] = tested on: NCI-H1975; assay: Induction of apoptosis in human NCI-H1975 cells harboring L858R/T790M double mutant assessed as necrotic cells at 200 nM after 48 hrs by annexin V-FITC/PI staining based flow cytometric analysis (reference value: 0.4%); assay type: functional
[10] = tested on: NCI-H1975; assay: Induction of apoptosis in human NCI-H1975 cells harboring L858R/T790M double mutant assessed as late apoptotic cells at 500 nM after 48 hrs by annexin V-FITC/PI staining based flow cytometric analysis (reference value: 3.4%); assay type: functional
[11] = tested on: NCI-H1975; assay: Induction of apoptosis in human NCI-H1975 cells harboring L858R/T790M double mutant assessed as early apoptotic cells at 200 nM after 48 hrs by annexin V-FITC/PI staining based flow cytometric analysis (reference value: 2%); assay type: functional
[12] = tested on: NCI-H1975; assay: Induction of apoptosis in human NCI-H1975 cells harboring L858R/T790M double mutant assessed as late apoptotic cells at 50 nM after 48 hrs by annexin V-FITC/PI staining based flow cytometric analysis (reference value: 3.4%); assay type: functional
[13] = tested on: NCI-H1975; assay: Induction of apoptosis in human NCI-H1975 cells harboring L858R/T790M double mutant assessed as early apoptotic cells at 50 nM after 48 hrs by annexin V-FITC/PI staining based flow cytometric analysis (reference value: 2%); assay type: functional
[14] = tested on: NCI-H1975; assay: Induction of apoptosis in human NCI-H1975 cells harboring L858R/T790M double mutant assessed as viable cells at 200 nM after 48 hrs by annexin V-FITC/PI staining based flow cytometric analysis (reference value: 94.2%); assay type: functional; settings: NCI-H1975, 48 h, read-out: Activity
[15] = tested on: NCI-H1975; assay: Induction of apoptosis in human NCI-H1975 cells harboring L858R/T790M double mutant assessed as viable cells at 50 nM after 48 hrs by annexin V-FITC/PI staining based flow cytometric analysis (reference value: 94.2%); assay type: functional; settings: NCI-H1975, 48 h, read-out: Activity
[16] = tested on: Epidermal growth factor receptor (Homo sapiens), P00533 [L858R,T790M]; assay: Potency index, ratio of rociletinib IC50 to compound IC50 for human recombinant N-terminal GST-tagged EGFR T790M/L858R double mutant cytoplasmic domain (695 end residues) autophosphorylation expressed in baculovirus infected Sf9 insect cells
[17] = tested on: NCI-H1975; assay: Induction of apoptosis in human NCI-H1975 cells harboring L858R/T790M double mutant assessed as early apoptotic cells at 500 nM after 48 hrs by annexin V-FITC/PI staining based flow cytometric analysis (reference value: 2%); assay type: functional
[18] = tested on: NCI-H1975; assay: Induction of apoptosis in human NCI-H1975 cells harboring L858R/T790M double mutant assessed as late apoptotic cells at 200 nM after 48 hrs by annexin V-FITC/PI staining based flow cytometric analysis (reference value: 3.4%); assay type: functional
[19] = tested on: NCI-H1975; assay: Induction of apoptosis in human NCI-H1975 cells harboring L858R/T790M double mutant assessed as viable cells at 500 nM after 48 hrs by annexin V-FITC/PI staining based flow cytometric analysis (reference value: 94.2%); assay type: functional; settings: NCI-H1975, 48 h, read-out: Activity
[20] = tested on: NCI-H1975; assay: Induction of apoptosis in human NCI-H1975 cells harboring L858R/T790M double mutant assessed as necrotic cells at 50 nM after 48 hrs by annexin V-FITC/PI staining based flow cytometric analysis (reference value: 0.4%); assay type: functional
[21] = tested on: NCI-H1975; assay: Induction of apoptosis in human NCI-H1975 cells harboring L858R/T790M double mutant after 48 hrs by annexin V-FITC/PI staining based flow cytometric analysis; assay type: functional, cell-based
[22] = tested on: NCI-H1975; assay: Potency index, ratio of gefitinib IC50 to compound IC50 against human NCI-H1975 cells harboring L858R/T790M double mutant; assay type: functional

Compound	IC50 [1]	IC50 [2]	IC50 [3]	IC50 [4]	IC50 [5]	IC50 [6]	IC50 [7]	other results
C=CC(=O)Nc1cccc(Nc2nc(Nc3ccc(N4CCN(C(C)=O)CC4)cc3OC)ncc2C(F)(F)F)c1 [ROCILETINIB]	0.0214 µM	0.137 µM	1.29 µM	6.5 µM	> 40 µM			
C=CC(=O)Nc1cccc(Nc2nc(Nc3ccc(OCCn4ccnc4)cc3)ncc2Cl)c1	> 0.00943 µM	0.391 µM	1.34 µM	8.44 µM	39.1 µM	0.106 µM	> 1 µM	
C=CC(=O)Nc1cccc(Nc2nc(Nc3ccc(Cn4ccnc4)cc3)ncc2Cl)c1	0.299 µM	0.118 µM	0.733 µM	2.73 µM	> 40 µM	0.0033 µM	1 µM	Activity [8]: 0.1%; Activity [9]: 0.1%; Activity [10]: 3.7%; Activity [11]: 24.3%; Activity [12]: 2.6%; Activity [13]: 16.3%; viability at 0.2 µM [14]: 71.3%; viability at 0.05 µM [15]: 81%; Ratio IC50 [16]: 8; Activity [17]: 56.7%; Activity [18]: 4.2%; viability at 0.5 µM [19]: 39.6%; Activity [20]: 0.1%; Activity [21]: Dose-dependent effect; Ratio IC50 [22]: 10
C=CC(=O)Nc1cccc(Nc2nc(Nc3ccc(-n4ccnc4)cc3)ncc2[N+](=O)[O-])c1	> 0.0102 µM	12.6 µM	12.3 µM	> 40 µM	> 40 µM	0.0982 µM	> 1 µM	
C=CC(=O)Nc1cccc(Nc2nc(Nc3ccc(OCCCn4ccnc4)cc3)ncc2[N+](=O)[O-])c1	> 0.0246 µM	8.32 µM	6.46 µM	27.4 µM	39.2 µM			
C=CC(=O)Nc1cccc(Nc2nc(Nc3ccc(OCCn4cncn4)cc3)ncc2Cl)c1	> 0.00967 µM	2.37 µM	5.95 µM	10.9 µM	> 40 µM	0.103 µM	> 1 µM	
C=CC(=O)Nc1cccc(Nc2nc(Nc3ccc(Cn4ccnc4)cc3)ncc2F)c1	0.11 µM	1.72 µM	0.152 µM	3.56 µM	> 40 µM	0.009 µM	0.987 µM	
C=CC(=O)Nc1cccc(Nc2nc(Nc3ccc(OCCn4ccnc4)cc3)ncc2F)c1	> 0.11 µM	1.81 µM	2.48 µM	8.37 µM	40 µM	0.0091 µM	> 1 µM	
C=CC(=O)Nc1cccc(Nc2nc(Nc3ccc(Cn4ccnc4)cc3OC)ncc2Cl)c1	0.00464 µM	0.932 µM	6.78 µM	14.3 µM	> 40 µM	0.109 µM	0.506 µM	
C=CC(=O)Nc1cccc(Nc2nc(Nc3ccc(NC(=O)Cn4ccnc4)cc3)ncc2[N+](=O)[O-])c1	> 0.00843 µM	11.5 µM	16.2 µM	> 40 µM	> 40 µM			
